# Experimental data from ChEMBL document CHEMBL3272227, “Conformationally restricted analogs of histamine H1 receptor antagonists: trans and cis-1-benzyl-3-dimethylamino-6-phenylpiperidine” (J Med Chem, 1976).
# The source made the active and inactive calls. The rule behind the calls is not given here.
# Tests used:
# [1] = target: Histamine H1 receptor (Cavia porcellus) (UniProt P31389); test: Antagonist activity at histamine H1 receptor in guinea pig ileum assessed as inhibition of histamine-induced contraction at 0.1 uM treated for 15 mins prior to histamine challenge; assay type: tissue-based
# [2] = tested on: Ileum; test: Inhibition of acetylcholine-induced contraction in guinea pig ileum at 0.1 uM treated for 15 mins prior to acetylcholine challenge; assay type: functional, tissue-based; conditions: Cavia porcellus
# [3] = target: Histamine H1 receptor (Cavia porcellus) (UniProt P31389); test: Antagonist activity at histamine H1 receptor in guinea pig ileum assessed as inhibition of histamine-induced contraction treated for 15 mins prior to histamine challenge; assay type: tissue-based
# [4] = tested on: Ileum; test: Inhibition of acetylcholine-induced contraction in guinea pig ileum treated for 15 mins prior to acetylcholine challenge; assay type: functional; conditions: Cavia porcellus, read-out: ED50 (the source's name)
# [5] = tested on: Ileum; test: Inhibition of barium chloride-induced contraction in guinea pig ileum at 5 uM; assay type: functional; conditions: Cavia porcellus
# [6] = target: Histamine N-methyltransferase (Cavia porcellus, UniProt Q9EST2); test: Inhibition of histamine N-methyltransferase in guinea pig brain using S-adenosyl-L-methionine-14C as substrate by scintillation spectrophotometer
# [7] = tested on: Ileum; test: Inhibition of barium chloride-induced contraction in guinea pig ileum at 2 uM; assay type: functional; conditions: Cavia porcellus
# [8] = target: Histamine H1 receptor (Cavia porcellus) (UniProt P31389); test: Antagonist activity at histamine H1 receptor in guinea pig ileum assessed as inhibition of histamine-induced contraction at 50 nM treated for 15 mins prior to histamine challenge; assay type: tissue-based
# [9] = target: Histamine H1 receptor (Cavia porcellus) (UniProt P31389); test: Antagonist activity at histamine H1 receptor in guinea pig ileum assessed as inhibition of histamine-induced contraction at 10 nM treated for 15 mins prior to histamine challenge; assay type: tissue-based
# Chain of Histamine H1 receptor (Cavia porcellus) (P31389 whole entry): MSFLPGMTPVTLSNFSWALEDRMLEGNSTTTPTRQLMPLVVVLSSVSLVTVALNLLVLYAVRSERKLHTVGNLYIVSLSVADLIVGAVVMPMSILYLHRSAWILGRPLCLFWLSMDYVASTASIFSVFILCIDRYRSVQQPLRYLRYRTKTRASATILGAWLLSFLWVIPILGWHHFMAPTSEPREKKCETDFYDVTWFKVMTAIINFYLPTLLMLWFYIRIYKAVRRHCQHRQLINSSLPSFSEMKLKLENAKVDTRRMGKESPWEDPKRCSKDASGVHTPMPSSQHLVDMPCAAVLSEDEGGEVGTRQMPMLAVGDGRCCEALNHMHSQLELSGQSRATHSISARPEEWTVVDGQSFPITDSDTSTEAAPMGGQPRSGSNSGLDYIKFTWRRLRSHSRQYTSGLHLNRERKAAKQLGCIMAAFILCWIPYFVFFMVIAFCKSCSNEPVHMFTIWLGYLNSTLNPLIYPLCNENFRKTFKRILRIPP
# Chain of Histamine N-methyltransferase (Q9EST2 whole entry): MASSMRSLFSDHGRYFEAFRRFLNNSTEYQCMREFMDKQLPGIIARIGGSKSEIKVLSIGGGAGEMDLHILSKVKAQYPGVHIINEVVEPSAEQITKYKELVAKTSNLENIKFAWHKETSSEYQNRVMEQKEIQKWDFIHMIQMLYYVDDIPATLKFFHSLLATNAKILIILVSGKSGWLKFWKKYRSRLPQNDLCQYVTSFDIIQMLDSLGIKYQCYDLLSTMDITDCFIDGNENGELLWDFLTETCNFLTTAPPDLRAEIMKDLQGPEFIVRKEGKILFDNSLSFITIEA
smiles,measurement,setting,value
CN(C)CCN(Cc1ccccc1)c1ccccn1,inhibition,[1],66%
same,inhibition,[2],inactive
CN(C)[C@H]1CC[C@H](c2ccccc2)N(Cc2ccccc2)C1 (relative stereo),ED50,[3],6.72 µM
same,EC50,[4],2.9 µM
same,inhibition at 5 µM,[5],39%
same,Ki,[6],247 µM
CN(C)[C@@H]1CC[C@H](c2ccccc2)N(Cc2ccccc2)C1 (relative stereo),ED50,[3],1.83 µM
same,EC50,[4],1.45 µM
same,inhibition at 2 µM,[7],50%
same,Ki,[6],31.6 µM
CN(C)[C@@H]1C[C@H](c2ccccc2)N(c2ccccc2)C1 (relative stereo),inhibition,[8],45%
CN(C)[C@H]1C[C@H](c2ccccc2)N(c2ccccc2)C1 (relative stereo),inhibition,[9],85%
